{"source": "ChEMBL document CHEMBL3045930", "about": "“Study on the quantitative structuretoxicity relationships of aconitine compounds basing on PCA-ANN method” (Med Chem Res, 2013)", "tested_on": "Mus musculus", "test": "Toxicity in po dosed Mus musculus (mouse)", "format": "organism-based", "set-up": "unit not given here", "conditions": "in vivo"}
{"smiles": "COC[C@@]12CC[C@H](OC)[C@]34C([C@@H]([C@H](OC)[C@H]13)[C@]1(OC(C)=O)[C@H]3[C@@H](OC(=O)c5ccccc5)[C@](O)(C[C@H]34)[C@@H](OC)[C@@H]1O)N(C)C2", "values": [{"measurement": "logLD50", "value": -0.33}]}
{"smiles": "CCN1C[C@@H]2CC[C@H](OC)[C@]34C1[C@@H](C[C@H]23)[C@@]1(O)C[C@@H](OC)[C@@]2(O)C[C@@H]4[C@@H]1[C@H]2OC(=O)c1ccccc1", "values": [{"measurement": "logLD50", "value": 1.45}]}
{"smiles": "CCN1C[C@]2(C)CC[C@H](OC)[C@@]34C1[C@@]1(OCO[C@@]15C[C@H](OC)[C@H]1C[C@]3(O)[C@@H]5[C@H]1OC)[C@@H](OC(C)=O)[C@H]24", "values": [{"measurement": "logLD50", "value": 2.12}]}
{"smiles": "Br.CCN1C[C@]2(COC)[C@H](O)C[C@H](OC)[C@]34C1[C@@H]([C@H](OC)[C@H]23)[C@]1(OC(C)=O)[C@H]2[C@@H](OC(=O)c3ccccc3)[C@](O)(C[C@H]24)[C@@H](OC)[C@@H]1O", "values": [{"measurement": "logLD50", "value": -0.87}]}
{"smiles": "CCN1C[C@]2(COC)CC[C@H](OC)[C@]34C1[C@@H](C[C@H]23)[C@@]1(O)C[C@H](OC)[C@H]2C[C@@H]4[C@@H]1[C@H]2O", "values": [{"measurement": "logLD50", "value": -0.94}]}
{"smiles": "CCN1C[C@]2(COC(=O)c3ccccc3N3C(=O)C[C@H](C)C3=O)CC[C@H](OC)[C@]34C1[C@@](O)([C@@H](OC)[C@H]23)[C@@]1(O)C[C@H](OC)[C@H]2C[C@@H]4[C@@H]1[C@H]2OC", "values": [{"measurement": "logLD50", "value": 0.48}]}
{"smiles": "CCN1C[C@]2(COC)[C@H](O)C[C@H](OC)[C@]34C1[C@@H]([C@H](OC)[C@H]23)[C@]1(OC(C)=O)[C@H]2[C@@H](OC(=O)c3ccccc3)[C@](O)(C[C@]24O)[C@@H](OC)[C@@H]1O", "values": [{"measurement": "logLD50", "value": -0.66}]}
{"smiles": "CCN1C[C@@]2(COC)[C@H]3[C@@H](OC)[C@@H]4C1[C@]3([C@@H](OC)C[C@H]2OC(C)=O)[C@@H]1C[C@@]2(O)[C@H](OC(=O)c3ccccc3)[C@@H]1[C@]4(OC(C)=O)[C@@H](O)[C@@H]2OC", "values": [{"measurement": "logLD50", "value": -0.4}]}
{"smiles": "Br.CCN1C[C@]2(COC)[C@H](O)C[C@H](OC)[C@]34C1[C@@H]([C@H](OC)[C@H]23)[C@]1(O)[C@H]2[C@@H](OC(=O)c3ccccc3)[C@](O)(C[C@H]24)[C@@H](OC)[C@@H]1O", "values": [{"measurement": "logLD50", "value": 1.41}]}
{"smiles": "CCN1C[C@@]2(COC)[C@H]3[C@@H](OC)[C@@H]4C1[C@]3([C@@H](OC)C[C@H]2OC(C)=O)[C@@H]1C[C@@]2(OC(C)=O)[C@H](OC(=O)c3ccccc3)[C@@H]1[C@]4(OC(C)=O)[C@@H](OC(C)=O)[C@@H]2OC", "values": [{"measurement": "logLD50", "value": 2.1}]}
{"smiles": "CCN1C[C@@]2(COC)[C@H]3[C@@H](OC)[C@@H]4C1[C@]3([C@@H](OC)C[C@H]2OC(C)=O)[C@@H]1C[C@@]2(OC(C)=O)[C@H](OC(C)=O)[C@@H]1[C@]4(OC(C)=O)[C@@H](OC(C)=O)[C@@H]2OC", "values": [{"measurement": "logLD50", "value": 2.83}]}
{"smiles": "Br.COC[C@]12CN(C)C3[C@H]4[C@H](OC)[C@H]1[C@@]3([C@@H](OC)C[C@H]2O)[C@@H]1C[C@@]2(O)[C@H](OC(=O)c3ccccc3)[C@@H]1[C@]4(OC(C)=O)[C@@H](O)[C@@H]2OC", "values": [{"measurement": "logLD50", "value": -0.95}]}
{"smiles": "COC[C@]12CN(C)C3[C@H]4[C@H](OC)[C@H]1[C@@]3([C@@H](OC)C[C@H]2O)[C@@H]1C[C@@]2(O)[C@H](OC(=O)c3ccccc3)[C@@H]1[C@]4(O)[C@@H](O)[C@@H]2OC", "values": [{"measurement": "logLD50", "value": 1.32}]}
{"smiles": "Br.COC[C@]12CN(C)C3[C@H]4[C@H](OC)[C@H]1[C@@]3([C@@H](OC)C[C@H]2O)[C@@H]1C[C@@]2(O)[C@H](OC(=O)c3ccccc3)[C@@H]1[C@]4(O)[C@@H](O)[C@@H]2OC", "values": [{"measurement": "logLD50", "value": 1.38}]}
{"smiles": "CCN1C[C@]2(COC)[C@H](O)C[C@H](OC)[C@]34C1[C@@H]([C@H](OC)[C@H]23)[C@@]1(O)C[C@H](OC)[C@@]2(O)C[C@@H]4[C@@H]1[C@H]2OC(=O)c1ccccc1", "values": [{"measurement": "logLD50", "value": 2.15}]}
{"smiles": "CCN1C[C@@]2(COC)[C@H]3[C@@H](OC)[C@@H]4C1[C@]3([C@@H](OC)C[C@H]2OC(C)=O)[C@@H]1C[C@]2(O)[C@@H](OC)C[C@@]4(OC(C)=O)[C@H]1[C@H]2OC(=O)c1ccccc1", "values": [{"measurement": "logLD50", "value": 3.16}]}
{"smiles": "CCN1C[C@@]2(COC)[C@H]3[C@@H](OC)[C@@H]4C1[C@]3([C@@H](OC)C[C@H]2OC(C)=O)[C@@H]1C[C@]2(OC(C)=O)[C@@H](OC)C[C@@]4(OC(C)=O)[C@H]1[C@H]2OC(=O)c1ccccc1", "values": [{"measurement": "logLD50", "value": 1.34}]}
{"smiles": "CCN1C[C@@]2(COC)[C@H]3[C@@H](OC)[C@@H]4C1[C@]3([C@@H](OC)C[C@H]2OC(C)=O)[C@@H]1C[C@]2(OC(C)=O)[C@@H](OC)C[C@@]4(OC(C)=O)[C@H]1[C@H]2OC(C)=O", "values": [{"measurement": "logLD50", "value": 2.18}]}
{"smiles": "Br.COC[C@@]12CC[C@H](OC)[C@]34C([C@@H]([C@H](OC)[C@H]13)[C@]1(OC(C)=O)[C@H]3[C@@H](OC(=O)c5ccccc5)[C@](O)(C[C@H]34)[C@@H](OC)[C@@H]1O)N(C)C2", "values": [{"measurement": "logLD50", "value": -0.27}]}
{"smiles": "COC[C@@]12CC[C@H](OC)[C@]34C([C@@H]([C@H](OC)[C@H]13)[C@]1(O)[C@H]3[C@@H](OC(=O)c5ccccc5)[C@](O)(C[C@H]34)[C@@H](OC)[C@@H]1O)N(C)C2", "values": [{"measurement": "logLD50", "value": 1.36}]}
{"smiles": "Br.COC[C@@]12CC[C@H](OC)[C@]34C([C@@H]([C@H](OC)[C@H]13)[C@]1(O)[C@H]3[C@@H](OC(=O)c5ccccc5)[C@](O)(C[C@H]34)[C@@H](OC)[C@@H]1O)N(C)C2", "values": [{"measurement": "logLD50", "value": 1.41}]}
{"smiles": "CCN1C[C@]2(COC)CC[C@H](O)[C@]34C1[C@@](O)([C@@H](OC)[C@H]23)[C@@]1(O)C[C@H](OC)[C@H]2C[C@@H]4[C@@H]1[C@H]2OC.Cl", "values": [{"measurement": "logLD50", "value": 2.07}]}
{"smiles": "CCN1C[C@]2(O)CC[C@H](OC)[C@]34C1[C@@H](C[C@H]23)[C@@]1(O)C[C@H](OC)[C@H]2C[C@@H]4[C@]1(O)[C@H]2OC", "values": [{"measurement": "logLD50", "value": 2.15}]}
{"smiles": "CCN1C[C@]2(OC(=O)c3ccccc3NC(C)=O)CC[C@H](OC)[C@]34C1[C@@H](C[C@H]23)[C@@]1(O)C[C@H](OC)[C@H]2C[C@@H]4[C@]1(O)[C@H]2OC", "values": [{"measurement": "logLD50", "value": 0.84}]}
{"smiles": "Br.CCN1C[C@]2(OC(=O)c3ccccc3NC(C)=O)CC[C@H](OC)[C@]34C1[C@@H](C[C@H]23)[C@@]1(O)C[C@H](OC)[C@H]2C[C@@H]4[C@]1(O)[C@H]2OC", "values": [{"measurement": "logLD50", "value": 0.92}]}
{"smiles": "CCN1C[C@]2(OC(=O)c3ccccc3NC(C)=O)CC[C@H](OC)[C@]34C1[C@@H](C[C@H]23)[C@@]1(OC(C)=O)C[C@H](OC)[C@H]2C[C@@H]4[C@]1(OC(C)=O)[C@H]2OC", "values": [{"measurement": "logLD50", "value": 1.16}]}
{"smiles": "CCN1C[C@]2(COC)CC[C@H](O)[C@]34C1[C@@](O)([C@@H](OC)[C@H]23)[C@@]1(O)C[C@H](OC)[C@H]2C[C@@H]4[C@@H]1[C@H]2O", "values": [{"measurement": "logLD50", "value": 2.04}]}
{"smiles": "CCN1C[C@]2(COC)[C@H](O)C[C@H](OC)[C@]34C1[C@@H]([C@H](OC)[C@H]23)[C@@]1(OC(C)=O)C[C@H](OC)[C@@]2(O)C[C@@H]4[C@@H]1[C@H]2OC(=O)c1ccc(OC)c(OC)c1", "values": [{"measurement": "logLD50", "value": 2.56}]}
{"smiles": "CCN1C[C@]2(COC)[C@H](O)C[C@H](OC)[C@]34C1[C@@H]([C@H](OC)[C@H]23)[C@]1(O)[C@H]2[C@@H](OC(=O)c3ccccc3)[C@](O)(C[C@H]24)[C@@H](OC)[C@@H]1O", "values": [{"measurement": "logLD50", "value": 1}]}
{"smiles": "COC[C@]12CN(C)C3[C@H]4[C@H](OC)[C@H]1[C@@]3([C@@H](OC)C[C@H]2O)[C@@H]1C[C@@]2(O)[C@H](OC(=O)c3ccccc3)[C@@H]1[C@]4(OC(C)=O)[C@@H](OC)[C@@H]2O", "values": [{"measurement": "logLD50", "value": -1}]}
{"smiles": "CCN1C[C@]2(COC)[C@H](O)C[C@H](OC)[C@]34C1[C@@H]([C@H](OC)[C@H]23)[C@@]1(OC(C)=O)C[C@H](OC)[C@@]2(O)C[C@@H]4[C@@H]1[C@H]2OC(=O)c1ccccc1", "values": [{"measurement": "logLD50", "value": -0.33}]}
{"smiles": "CCN1C[C@]2(COC)[C@H](O)C[C@H](OC)[C@]34C1[C@@H]([C@H](OC)[C@H]23)[C@]1(OC(C)=O)[C@H]2[C@@H](OC(=O)c3ccccc3)[C@](O)(C[C@H]24)[C@@H](OC)[C@@H]1O", "note": "(stereo in doubt; 1)", "values": [{"measurement": "logLD50", "value": -0.92}]}
{"smiles": "CCN1C[C@]2(COC)[C@H](O)C[C@H](OC)[C@]34C1[C@@H]([C@H](OC)[C@H]23)[C@]1(OC(C)=O)[C@H]2[C@@H](OC(=O)c3ccccc3)[C@](O)(C[C@H]24)[C@@H](OC)[C@@H]1O", "note": "(stereo in doubt; 12)", "values": [{"measurement": "logLD50", "value": -0.78}]}
{"smiles": "CCN1C[C@]2(COC)CC[C@H](O)[C@]34C1[C@@](O)([C@@H](OC)[C@H]23)[C@@]1(O)C[C@H](OC)[C@H]2C[C@@H]4[C@@H]1[C@H]2OC", "note": "[DELSOLINE]", "values": [{"measurement": "logLD50", "value": 2.24}]}
{"smiles": "CCN1C[C@]2(COC(=O)c3ccccc3N3C(=O)C[C@H](C)C3=O)CC[C@H](OC)[C@@]34C1[C@@]1(OCO[C@@]15C[C@H](OC)[C@H]1C[C@@H]3[C@@H]5[C@H]1OC)[C@@H](OC)[C@H]24", "note": "[ELATINE]", "values": [{"measurement": "logLD50", "value": 0.7}]}
{"smiles": "CCN1C[C@]2(C)CC[C@H](O)[C@]34C1[C@@H](C[C@H]23)[C@@]1(O)C[C@H](OC)[C@H]2C[C@@H]4[C@@H]1[C@H]2O", "note": "[KARAKOLINE]", "values": [{"measurement": "logLD50", "value": 1.71}]}
